The numbers were not newly measured in patent US7098224B2, “Hydroxylansoprazole methods” (Sepracor Inc., priority 1998, dated 2006), which cites them from elsewhere.

The data set relates to isolated parietal cells. As to conditions: Inatomi et al., Yakuri to Chiryo 19, 477–486 (1991).

Consider `Cc1c(OCC(F)(F)F)ccnc1C[S+]([O-])c1nc2cc(O)ccc2[nH]1` (racemic) [racemic hydroxylansoprazole, 2[[[3-methyl-4-(2,2,2-trifluoroethoxy)-2-pyridinyl]methyl]sulfinyl]-1 H-benzimidazol-5-ol], for which the “inhibition of acid formation in isolated parietal cells (result in words)” value is “did not inhibit acid formation”. In the case of `Cc1c(OCC(F)(F)F)ccnc1C[S+]([O-])c1nc2ccccc2[nH]1` (racemic) [lansoprazole, Lansoprazole], the IC50 – broadly, the concentration that inhibits the measured activity by half – (read-out: inhibited acid formation in isolated parietal cells, IC50) was 90 nM.
